The structures appear in SMILES notation.

Test [1] has as its system Caco2-HIF1α-HiBiT-clone-1 cells. The test can be described thus: Caco-2 HIF1α-HiBiT assay. Type of test: cell-based. To be noted: Homo sapiens, Caco-2; Caco2-HIF1α-HiBiT-clone-1 cells, 6 h incubation, luminescence; read-out: Caco2-HIF1α-HiBit assay - EC50. A general note: With HiBiT, luminescence reflects the tagged protein that the partner subunit can reach.
The target of a further test is PHD2 (Homo sapiens, UniProt Q9GZT9). Kind of test: PHD2 enzymatic assay (AlphaScreen). Type of test: biochemical. To be noted: PHD2 enzyme, AlphaScreen, IC50 from % inhibition; read-out: PHD2. (Alpha assays give light when donor and acceptor beads are brought close together.)
Chain of PHD2 (Q9GZT9 whole entry): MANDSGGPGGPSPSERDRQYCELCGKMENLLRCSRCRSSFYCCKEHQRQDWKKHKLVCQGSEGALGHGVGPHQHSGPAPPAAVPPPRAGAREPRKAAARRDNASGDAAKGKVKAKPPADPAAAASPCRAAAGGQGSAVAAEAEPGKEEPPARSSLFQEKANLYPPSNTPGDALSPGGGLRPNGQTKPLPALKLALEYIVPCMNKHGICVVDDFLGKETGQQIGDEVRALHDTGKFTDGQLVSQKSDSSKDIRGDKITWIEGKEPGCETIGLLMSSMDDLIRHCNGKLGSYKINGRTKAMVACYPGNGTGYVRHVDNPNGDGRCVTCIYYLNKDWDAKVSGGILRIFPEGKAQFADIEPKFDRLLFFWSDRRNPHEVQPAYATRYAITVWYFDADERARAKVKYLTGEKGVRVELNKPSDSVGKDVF

With `CN1CCN(c2ccc3c(O)c(C(=O)NCc4ccc(C#N)nc4)ncc3n2)C[C@@H]1CO` [Example 45, (R)—N-((6-cyanopyridin-3-yl)methyl)-5-hydroxy-2-(3-(hydroxymethyl)-4-methylpiperazin-1-yl)-1,7-naphthyridine-6-carboxamide], in test [1], the concentration for a half-maximal effect (EC50) (usually the concentration that produces a half-maximal response) was in the range of 10 to 100 µM. The IC50 on PHD2 was < 0.005 µM.

As to `CO[C@@H]1CCN(c2ccc3c(O)c(C(=O)NCc4ccc(C#N)nc4)ncc3n2)C1` [Example 27], the EC50 in test [1] is < 2.5 µM. The IC50 at PHD2 is < 0.005 µM.

Take `N#Cc1ccc(CNC(=O)c2ncc3nc(N4CCN(C5CC5)[C@@H](CO)C4)ccc3c2O)c(Cl)c1` [Example 70]: the EC50 in test [1] is 2.5 to 5 µM. The IC50 at PHD2 fell in the range of 0.005 to 0.02 µM.

For `N#Cc1ccc([C@@H](CO)NC(=O)c2ncc3nc(N4CCOCC4)ccc3c2O)cn1` [Example 64], the EC50 in test [1] fell in the range of 10 to 100 µM. Also, the IC50 on PHD2 was in the range of 0.1 to 1 µM.

On to `COC(=O)[C@H]1CN(c2ccc3c(O)c(C(=O)NCc4ccc(C#N)nc4)ncc3n2)CCO1` [Example 92], for which the concentration giving a half-maximal response (EC50) in test [1] lay in the range of 5 to 7.5 µM. For the same molecule, the IC50 on PHD2 is < 0.005 µM.

With `N#Cc1ccc(CNC(=O)c2ncc3nc(N4CCN[C@@H](CO)C4)ccc3c2O)c(Cl)c1` [Example 60, (R)—N-(2-chloro-4-cyanobenzyl)-5-hydroxy-2-(3-(hydroxymethyl)piperazin-1-yl)-1,7-naphthyridine-6-carboxamide], in test [1], the EC50 lay in the range of 10 to 100 µM. The IC50 on PHD2 was 0.005 to 0.02 µM.

For the molecule `CC(C)(C)OC(=O)N1CCN(c2ccc3c(O)c(C(=O)NCc4cnc(C#N)nc4)ncc3n2)CC1` [Example 133], the EC50 in test [1] fell in the range of 2.5 to 5 µM. The IC50 at PHD2 was 0.005 to 0.02 µM.

Turning to `CC(C)(C)OC(=O)N1CCN(c2ccc3c(O)c(C(=O)NCc4ccc(C#N)nc4)ncc3n2)CC1` [Example 29, tert-butyl 4-(6-(((6-cyanopyridin-3-yl)methyl)carbamoyl)-5-hydroxy-1,7-naphthyridin-2-yl)piperazine-1-carboxylate], in test [1], the EC50 is < 2.5 µM. On PHD2, the IC50 is < 0.005 µM.

Consider `CC(=O)N1CCN(c2ccc3c(O)c(C(=O)NCc4ccc(C#N)nc4)ncc3n2)C[C@@H]1CO` [Example 46, (R)-2-(4-acetyl-3-(hydroxymethyl)piperazin-1-yl)-N-((6-cyanopyridin-3-yl)methyl)-5-hydroxy-1,7-naphthyridine-6-carboxamide], for which, in test [1], the EC50 was in the range of 10 to 100 µM. In addition, the IC50 at PHD2 is < 0.005 µM.

As for `CC(=O)N1CCN(c2ccc3c(O)c(C(=O)NCc4ccc(C#N)cc4Cl)ncc3n2)C[C@@H]1CO` [Example 63, (R)-2-(4-acetyl-3-(hydroxymethyl)piperazin-1-yl)-N-(2-chloro-4-cyanobenzyl)-5-hydroxy-1,7-naphthyridine-6-carboxamide], the EC50 in test [1] fell in the range of 7.5 to 10 µM. The IC50 on PHD2 lay within 0.005 to 0.02 µM.

Take `COC(=O)N1CCN(c2ccc3c(O)c(C(=O)NCc4ccc(C#N)nc4)ncc3n2)CC1` [Example 120]: the EC50 in test [1] was 10 to 100 µM. Also, on PHD2, the IC50 is < 0.005 µM.

On to `N#Cc1ccc(CNC(=O)c2ncc3nc(N4CC[C@@H](CO)C4)ccc3c2O)cn1` [Example 42], for which, in test [1], the EC50 lay in the range of 2.5 to 5 µM. For the same molecule, on PHD2, the IC50 is < 0.005 µM.

Take `CC(C)(C)OC(=O)N[C@H]1CC(=O)N(c2ccc3c(O)c(C(=O)NCc4ccc(C#N)nc4)ncc3n2)C1` [Example 143]: the concentration for a half-maximal effect (EC50) in test [1] is < 2.5 µM. For the same molecule, at PHD2, the IC50 was < 0.005 µM.

For `N#Cc1ccc(CNC(=O)c2ncc3nc(N4CC(O)(CO)C4)ccc3c2O)cn1` [Example 119], in test [1], the EC50 lay in the range of 10 to 100 µM. In addition, the IC50 on PHD2 was < 0.005 µM.

For the molecule `N#Cc1ccc(CNC(=O)c2ncc3nc(N4CCN[C@@H](C(=O)O)C4)ccc3c2O)cn1` [Example 51, (R)-4-(6-(((6-cyanopyridin-3-yl)methyl)carbamoyl)-5-hydroxy-1,7-naphthyridin-2-yl)piperazine-2-carboxylic acid], the EC50 in test [1] was in the range of 10 to 100 µM. Further, on PHD2, the IC50 was < 0.005 µM.

For the molecule `N#Cc1ncc(CNC(=O)c2ncc3nc(N4CCOCC4)ccc3c2O)cn1` [Example 23], the EC50 in test [1] was in the range of 5 to 7.5 µM. Moreover, at PHD2, the IC50 was < 0.005 µM.

For the molecule `N#Cc1ccc(CNC(=O)c2ncc3nc(N4CCN(C5CC5)[C@H](CO)C4)ccc3c2O)c(Cl)c1` [Example 71], the EC50 in test [1] is 2.5 to 5 µM. On PHD2, the IC50 is 0.005 to 0.02 µM.

Turning to `CC(C)OC(=O)CC1CN(c2ccc3c(O)c(C(=O)NCc4ccc(C#N)nc4)ncc3n2)C1` [Example 154], the half-maximal effective concentration (EC50) in test [1] was < 2.5 µM.

As for `COC(=O)CC1CN(c2ccc3c(O)c(C(=O)NCc4ccc(C#N)nc4)ncc3n2)C1` [Example 152], the half-maximal effective concentration (EC50) in test [1] fell in the range of 2.5 to 5 µM. The IC50 on PHD2 is < 0.005 µM.

Turning to `COC(=O)C1CN(c2ccc3c(O)c(C(=O)NCc4ccc(C#N)nc4)ncc3n2)C1` [Example 84], the EC50 in test [1] was 5 to 7.5 µM. Moreover, the IC50 at PHD2 was < 0.005 µM.

Take `N#Cc1cnc(CNC(=O)c2ncc3nc(N4CCOCC4)ccc3c2O)cn1` [Example 33]: in test [1], the EC50 is 5 to 7.5 µM.

On to `COc1c(C(=O)NCc2ccc(C#N)nc2)ncc2nc(N3CCOCC3)ccc12` [Example 163, N-((6-cyanopyridin-3-yl)methyl)-5-methoxy-2-morpholino-1,7-naphthyridine-6-carboxamide], for which, on PHD2, the IC50 is 0.1 to 1 µM.

Take `CC(C)(C)OC(=O)N1CCN(c2ccc3c(O)c(C(=O)NCc4ccc(C#N)nc4)ncc3n2)C[C@@H]1CO` [Example 47]: the EC50 in test [1] was < 2.5 µM. Further, on PHD2, the IC50 was < 0.005 µM.

With `CC(C)OC(=O)C1CCN(c2ccc3c(O)c(C(=O)NCc4ccc(C#N)nc4)ncc3n2)CC1` [Example 95], the EC50 in test [1] is 10 to 100 µM. The IC50 at PHD2 was < 0.005 µM.

Regarding `N#Cc1ccc(CNC(=O)c2ncc3nc(N4CCNCC4=O)ccc3c2O)cn1` [Example 102, N-((6-cyanopyridin-3-yl)methyl)-5-hydroxy-2-(2-oxopiperazin-1-yl)-1,7-naphthyridine-6-carboxamide], at PHD2, the IC50 lay in the range of 0.1 to 1 µM.

Take `N#Cc1ccc(CNC(=O)c2ncc3nc(N4CC(N)C4)ccc3c2O)cn1` [Example 128, 2-(3-aminoazetidin-1-yl)-N-((6-cyanopyridin-3-yl)methyl)-5-hydroxy-1,7-naphthyridine-6-carboxamide]: the EC50 in test [1] fell in the range of 5 to 7.5 µM. The IC50 at PHD2 lay within 0.02 to 0.1 µM.

As to `C[C@@H]1CN(C(=O)OC(C)(C)C)CCN1c1ccc2c(O)c(C(=O)NCc3ccc(C#N)nc3)ncc2n1` [Example 150], the EC50 in test [1] was < 2.5 µM. Moreover, the IC50 on PHD2 is < 0.005 µM.

For `CN1CCN(c2ccc3c(O)c(C(=O)NCc4ccc(C#N)cc4Cl)ncc3n2)CC1=O` [Example 19], in test [1], the EC50 is 10 to 100 µM. Besides, at PHD2, the IC50 fell in the range of 0.005 to 0.02 µM.

For `CC(NC(=O)c1ncc2nc(N3CCOCC3)ccc2c1O)c1ccc(C#N)nc1` (centres unmarked) [Example 21], the EC50 in test [1] fell in the range of 10 to 100 µM. In addition, the IC50 at PHD2 fell in the range of 0.02 to 0.1 µM.

Consider `COC(=O)C1(O)CN(c2ccc3c(O)c(C(=O)NCc4ccc(C#N)nc4)ncc3n2)C1` [Example 121], for which the EC50 in test [1] lay within 7.5 to 10 µM. The IC50 on PHD2 was < 0.005 µM.

`N#Cc1ccc(CNC(=O)c2ncc3nc(N4CCOCC4)ncc3c2O)cn1` [Example 31]: the EC50 in test [1] lay in the range of 10 to 100 µM.

As for `CP1(=O)CCN(c2ccc3c(O)c(C(=O)NCc4ccc(C#N)cc4Cl)ncc3n2)CC1` [Example 16], in test [1], the EC50 was 10 to 100 µM. Further, at PHD2, the IC50 is < 0.005 µM.

Take `CCOC(=O)C1CCN(c2ccc3c(O)c(C(=O)NCc4ccc(C#N)nc4)ncc3n2)CC1` [Example 94]: the EC50 in test [1] was 7.5 to 10 µM. Besides, the IC50 on PHD2 is < 0.005 µM.

With `CC[C@H]1CN(C(=O)OC(C)(C)C)CCN1c1ccc2c(O)c(C(=O)NCc3ccc(C#N)nc3)ncc2n1` [Example 151], the 50% effective concentration (EC50) in test [1] was in the range of 2.5 to 5 µM.

On to `CC1(C)CCN(c2ccc3c(O)c(C(=O)NCc4ccc(C#N)nc4)ncc3n2)CC1` [Example 155], for which, in test [1], the EC50 was 7.5 to 10 µM.

In the case of `N#Cc1ccc(CNC(=O)c2ncc3nc(N4CCC(N)CC4)ccc3c2O)cn1` [Example 124, 2-(4-aminopiperidin-1-yl)-N-((6-cyanopyridin-3-yl)methyl)-5-hydroxy-1,7-naphthyridine-6-carboxamide], the concentration for a half-maximal effect (EC50) in test [1] lay within 10 to 100 µM. Besides, the IC50 on PHD2 is < 0.005 µM.

Regarding `CC(C)(C)OC(=O)N[C@H]1CCN(c2ccc3c(O)c(C(=O)NCc4ccc(C#N)nc4)ncc3n2)C1` [Example 125], the EC50 in test [1] is < 2.5 µM. The IC50 on PHD2 is < 0.005 µM.

As to `C[C@@H](NC(=O)c1ncc2nc(N3CCOCC3)ccc2c1O)c1ccc(C#N)cc1` [Example 18], the EC50 in test [1] fell in the range of 5 to 7.5 µM. Also, the IC50 at PHD2 was 0.005 to 0.02 µM.

With `N#Cc1ccc(CNC(=O)c2ncc3nc(N4CCOC(=O)C4)ccc3c2O)cn1` [Example 85, N-((6-cyanopyridin-3-yl)methyl)-5-hydroxy-2-(2-oxomorpholino)-1,7-naphthyridine-6-carboxamide], the 50% effective concentration (EC50) in test [1] fell in the range of 10 to 100 µM. On PHD2, the IC50 was < 0.005 µM.

Take `N#Cc1ccc(CNC(=O)c2ncc3nc(N4CCN(CCO)CC4)ccc3c2O)cn1` [Example 74]: the EC50 in test [1] fell in the range of 2.5 to 5 µM. Moreover, the IC50 at PHD2 is < 0.005 µM.

As to `CN1CCN(c2ccc3c(O)c(C(=O)NCc4ccc(C#N)cc4Cl)ncc3n2)C[C@@H]1CO` [Example 59, (R)—N-(2-chloro-4-cyanobenzyl)-5-hydroxy-2-(3-(hydroxymethyl)-4-methylpiperazin-1-yl)-1,7-naphthyridine-6-carboxamide], the EC50 in test [1] is 2.5 to 5 µM. The IC50 at PHD2 was < 0.005 µM.

In the case of `CC(C)(C)OC(=O)N1CCN(c2ccc3c(O)c(C(=O)NCc4ccc(C#N)nc4)ncc3n2)C[C@@H]1C#N` [Example 132], in test [1], the EC50 is 5 to 7.5 µM. Also, the IC50 on PHD2 is < 0.005 µM.

Consider `CC(C)(C)OC(=O)N1CCN(c2ccc3c(O)c(C(=O)NCc4cnc(C#N)cn4)ncc3n2)CC1` [Example 134, tert-butyl 4-(6-(((5-cyanopyrazin-2-yl)methyl)carbamoyl)-5-hydroxy-1,7-naphthyridin-2-yl)piperazine-1-carboxylate], for which the EC50 in test [1] lay within 10 to 100 µM.

As for `CCOC(=O)CC1CN(c2ccc3c(O)c(C(=O)NCc4ccc(C#N)nc4)ncc3n2)C1` [Example 153], in test [1], the EC50 fell in the range of 2.5 to 5 µM.

In the case of `Cc1cc(C#N)ncc1CNC(=O)c1ncc2nc(N3CCN(C(=O)OC(C)(C)C)CC3)ccc2c1O` [Example 135], in test [1], the EC50 was < 2.5 µM.

Values taken from patent US12071443B2, “Prolyl hydroxylase domain-containing protein (PHD) inhibitors and uses thereof” (Insilico Medicine IP Limited, priority 2021, dated 2024).
